Experiment in all cases: growth of human tumour cells (NCI), 48 h
Experiment [1] relates to BT-549 breast.
The test system of experiment [2] is HS 578T breast.
Experiment [3] relates to IGROV1 ovarian.
Experiment [4] concerns SF-268 CNS.
In experiment [5] the test system is SF-295 CNS.
Experiment [6] has as its system SK-MEL-28 melanoma.
The subject of experiment [7] is SK-OV-3 ovarian.
The subject of experiment [8] is SR leukemia.
Experiment [9] concerns SW-620 colon.
The test system of experiment [10] is UACC-62 melanoma.

Each structure is given as a SMILES string.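 Five compound concentrations were applied to cells in 96-well plates for 48 hours; endpoints were derived by simple linear interpolation of the resulting dose-response curve. GI50: concentration for 50% inhibition of growth. TGI is the concentration that stops growth completely.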 Some results are limits rather than exact numbers.

For the compound `O=C(O)CCC(C(=O)O)N1C(=O)C2C3CCC(C3)C2C1=O` (stereo not given), the TGI in experiment [1], in experiment [2], in experiment [3], in experiment [4], in experiment [5] and in experiment [6] was above 100 µM throughout. The TGI in [7], in experiment [8], in experiment [9] and in experiment [10] was above 100 µM in each case.
With `COC(=O)[C@]12CC[C@@H](C)[C@H](C)[C@@H]1C1=CC[C@@H]3[C@@]4(C)C(C=O)=C[C@@](C)(COC(=O)/C=C/c5ccccc5)[C@@H]4[C@H](O)C[C@@]3(C)[C@]1(C)CC2`, the GI50 was 6.05 µM in experiment [1]; 3.72 µM in experiment [2]; 4.34 µM in experiment [3]; 3.43 µM in experiment [4]; 2.06 µM in [5]; 2.7 µM in experiment [6]. Further, the GI50 in experiment [7] is 16.5 µM; in [8], 2.29 µM; in [9], 3.68 µM; in experiment [10] it was 2.49 µM. The TGI in [1] amounted to 63.9 µM; in experiment [2], 33.8 µM; in experiment [3] it was 66.4 µM; in [4] it was 48.3 µM; in experiment [5] it was 5.78 µM; in experiment [6] it was 7.63 µM. The TGI in experiment [7] came to 97.9 µM; in [8], 6.76 µM; in [9], 18.8 µM; in experiment [10], 8.48 µM.
In the case of `C/C(=N/N=C(N)N)c1ccc(NC(=O)Nc2ccc(/C(C)=N/N=C(N)N)cc2)cc1`, the GI50 in experiment [1] was 14.8 µM; in experiment [2], 26.5 µM; in experiment [3], 7.47 µM; in [4], 17.2 µM; in experiment [5], 12.4 µM; in experiment [6] it was 15 µM. In addition, the GI50 in experiment [7] was 36.3 µM; in experiment [8] it was 15.2 µM; in [9], 48.8 µM; in experiment [10], 17.4 µM. Besides, the TGI was 38.7 µM in experiment [1]; above 66.6 µM in experiment [2]; 23.9 µM in experiment [3]; above 71.2 µM in experiment [4]; 28.4 µM in experiment [5]; 39.9 µM in experiment [6]. The TGI in [7] was above 82.3 µM; in experiment [8], 30.1 µM; in experiment [9] it was above 100 µM; in [10] it was 45.3 µM.
For `O=C(O)Cc1cccc2c(=O)c3cccc([N+](=O)[O-])c3oc12`, the TGI in experiment [1], in experiment [2], in experiment [3], in experiment [4], in experiment [5] and in experiment [6] was above 100 µM throughout. Besides, the TGI in experiment [7], in experiment [8], in experiment [9] and in experiment [10] was above 100 µM in each case.
With `CCN(Cc1ccc(F)cc1)c1ccc(CO)c(OC)c1`, the GI50 in experiment [1] was 7.7 µM; in experiment [2] it was 14.9 µM; in experiment [3], 6.62 µM; in experiment [4] it was 22.1 µM; in experiment [5] it was 23.5 µM; in experiment [6] it was 20.2 µM. Moreover, the GI50 was 15.3 µM in [7], 19.5 µM in experiment [8], 21.1 µM in experiment [9] and 4.14 µM in experiment [10]. For the same compound, the TGI is 32.7 µM in experiment [1]; above 100 µM in [2]; 27.8 µM in experiment [3]; above 65.4 µM in [4]; above 84.3 µM in experiment [5]; above 100 µM in experiment [6]. In addition, the TGI in [7] is above 94.6 µM; in experiment [8], 55.7 µM; in experiment [9], above 100 µM; in experiment [10], 17.3 µM.
`N#CC1C(=O)NC(c2ccccc2[N+](=O)[O-])c2sc3c(F)cccc3c21` (stereo not given): the GI50 in experiment [1] was 14.9 µM; in [2], 15.2 µM; in experiment [3] it was 0.0549 µM; in [4], 15.8 µM; in [5], 1.11 µM; in experiment [6], 29.5 µM. Further, the GI50 is 10.1 µM in experiment [7], 7.86 µM in [8], 0.366 µM in experiment [9] and 0.341 µM in [10]. Further, the TGI is 61.5 µM in experiment [1]; 69.9 µM in experiment [2]; 5.11 µM in experiment [3]; 56.9 µM in experiment [4]; 30.3 µM in [5]; above 100 µM in experiment [6]. The TGI in experiment [7] was 62.3 µM; in experiment [8], above 65.4 µM; in [9], above 100 µM; in experiment [10], 4.27 µM.
For `C[CH2][Sn]([CH2]C)([O]C(=O)c1ccc(OC)c(OC)c1OC)[O]C(=O)c1ccc(OC)c(OC)c1OC`, the GI50 in [1] was 17.2 µM; in [2], 23.2 µM; in experiment [3] it was above 100 µM; in [4], 28 µM; in experiment [5] it was above 100 µM; in [6], 26.6 µM. Moreover, the GI50 in experiment [7] was above 100 µM; in [8], 48 µM; in experiment [9] it was 36.5 µM; in experiment [10] it was 42.6 µM. The TGI in experiment [1] is 31.1 µM; in [2], 88.8 µM; in [3], above 100 µM; in experiment [4], above 46.4 µM; in experiment [5], above 100 µM; in experiment [6], above 69 µM. Besides, the TGI in experiment [7] is above 100 µM; in experiment [8], above 100 µM; in experiment [9] it was 69.1 µM; in experiment [10], above 100 µM.
As to `Fc1ccc(Nc2nc3ccccc3c3occc23)cc1`, the GI50 in experiment [1] is 15.6 µM; in experiment [2] it was 14.3 µM; in experiment [3], 2.62 µM; in experiment [4] it was 7.54 µM; in [5] it was 3.39 µM; in experiment [6] it was 2.45 µM. For the same compound, the GI50 in experiment [7] was 5.16 µM; in experiment [8] it was 2.24 µM; in [9] it was 17 µM; in [10], 12.3 µM. The TGI stood at 28.9 µM in experiment [1]; 33.1 µM in [2]; 35.1 µM in [3]; 24.1 µM in [4]; 13.1 µM in experiment [5]; 16.6 µM in experiment [6]. Also, the TGI in experiment [7] turned out to be 18.4 µM; in experiment [8] it was 16.4 µM; in experiment [9] it was 30.7 µM; in experiment [10] it was 24.8 µM.
